The source of these data is US5393752A, “Methylpiperazinoazepine compounds, preparation and use thereof” (Therabel Research S.A./N.V., priority 1994, dated 1995).

Like-named read-outs stand apart in the source and are kept apart here. Some results are limits rather than exact numbers.

Data set [1] deals with T1, D2 dopaminergic receptors (Rattus norvegicus, UniProt P61169).
T1 construct: The striatum is dissected rapidly and homogenized; from tissue; host or cells: striatum of male Wistar rats, membrane preparation
The data set can be described thus: Affinity test, D2 dopaminergic receptors: (3H)-spiperone displacement in rat striatum membranes. Set-up: species or system male Wistar rats. As to conditions: read-out: Inhibition, % (binding of 3H-spiperone). Here is the method:
Characterization by (^3 H) spiperone displacement test.
The brain of male Wistar rats (200-250 g) is removed. The striatum is dissected rapidly and homogenized into 20 ml iced buffer ([…], pH=7.4, 25° C.) by means of a Teflon homogenizer. The homogenate is centrifuged at 4° C. at 10000 G during 10 minutes, the concentrate is washed two times with iced buffer and recentrifuged. The final concentrate is suspended into iced buffer (50 nM/HCl, pH=7.4) containing […], […] EDTA. After rehomogenization, the suspension is adjusted to 1 mg proteine per ml.
The binding of (^3 H)-spiperone is evaluated onto the following mixture: 200 μl membrane preparation (0.1-0.2 mg proteine), 100 μl (10^-6 M) test substance and […] buffer for a final volume of 1 ml. Control tubes, which are taken as a reference of the nonspecific binding, contain also 1 μM (+) butaclamol. The samples (in threefold) are then incubated with 0.5 nM (^3 H)spiperone at 25° C. for 60 minutes. This step is stopped by a quick vacuum filtration of the suspension through a glass-fiber filter GF/C. The filter is rinsed three times with 5 ml iced buffer.

The next data set has as its system muscarinergic receptors. Set-up: species or system CFY rat. As to conditions: 1.5 nM (3H) QNB, 25° C., pH 7.5, 60 minutes; non-specific binding with 10^-5 M atropin.
Data set [2] is described as follows: Catalepsy Test (extrapyramidal effects). The data set is classed as in vivo. The conditions noted are these: for dose at which catalepsy appears: catalepsy for doses above / cataleptic effect starting from; for cataleptic effect (in words): catalepsy test. The text has this:
See in particular GRAY W. D., OSTERBERG A. C., RAUH C. E., Arch. Int. Pharmacodyn. 134, 198, 1961 and COSTALL B., OLLEY J. E., Neuropharmacology 10, 297, 1971.
This test is representative for the extrapyramidal effects present in numerous neuroleptics (unwanted secondary effect). The compounds of the invention cause very little catalepsy and seem therefore to be free from this unwanted secondary effect. However, some products have shown a slight catalepsy: […]

The nature of data set [3]: Apomorphine Antagonism Test (in vivo), with locomotion and sedative effect. As to conditions: examples: "At 20 mg/kg" heads the paragraph. The text has this: The following results are provided by way of example.
Setting [4] is: test substance 100 μl (10^-6 M) in final volume 1 ml, 0.5 nM (3H)spiperone, 25° C., 60 min, vs 1 μM (+)butaclamol.
[5] abbreviates: scale from clozapine (20 mg/g) + to haloperidol (0.63 mg/kg) +++++.

T1 sequence (P61169 whole entry): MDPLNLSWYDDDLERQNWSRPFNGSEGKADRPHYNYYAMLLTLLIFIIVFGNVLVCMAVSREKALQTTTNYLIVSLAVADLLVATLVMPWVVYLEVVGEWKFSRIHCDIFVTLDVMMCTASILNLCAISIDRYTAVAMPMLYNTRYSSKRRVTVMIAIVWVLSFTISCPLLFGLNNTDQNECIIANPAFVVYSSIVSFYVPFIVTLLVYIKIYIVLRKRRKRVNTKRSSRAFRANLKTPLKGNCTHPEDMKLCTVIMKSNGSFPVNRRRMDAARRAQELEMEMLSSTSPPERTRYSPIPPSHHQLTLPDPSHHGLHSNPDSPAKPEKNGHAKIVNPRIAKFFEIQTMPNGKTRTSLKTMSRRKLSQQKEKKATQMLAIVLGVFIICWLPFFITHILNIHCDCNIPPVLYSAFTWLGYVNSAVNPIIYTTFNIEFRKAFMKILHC

For orientation: inhibition means the drop in the measured response relative to a control, in per cent. Turning to `CN1CCN(C2=Nc3ccccc3Sc3ccc(Cl)cc32)CC1` [Clothiapine, reference compound], the inhibition in data set [1] (setting [4]) turned out to be 94.6%. In addition, in the data set on muscarinergic receptors, the “Inhibition, % (binding of 3H QNB)” value was found to be 38.05%.

For `CN1CCN(C2=Nc3cc(Cl)ccc3Nc3ccccc32)CC1` [Clozapine, reference compound], in data set [2], the “dose at which catalepsy appears” value was no less than 20 mg/kg and the “cataleptic effect (in words)” value is recorded as “week cataleptic effect”. The “Apomorphine antagonism, intensity of activity” value (shortened to “Apomorphine antagonism”) in data set [3] (setting [5]) is reported as “+”.

As for `CN1CCN(C2=Nc3ccccc3Nc3ccncc32)CC1` [Example 1, 11-(4-methylpiperazin-1-yl)-5H-pyrido(4,3-b)benzo-1,5-diazepine], the “dose at which catalepsy appears” value in data set [2] is “above 40 mg/kg”. The inhibition in data set [1] came out at 56.2%. Further, the “Inhibition, % (binding of 3H QNB)” value in the data set with muscarinergic receptors amounted to 4.48%.

For `CN1CCN(C2=Nc3cccnc3Sc3ccc(Cl)cc32)CC1.O=C(O)/C=C/C(=O)O` [Example 3, 8-chloro-6-(4-methylpiperazin-1-yl)pyrido(2,3-b)benzo-1,4-thiazepine fumarate], the “dose at which catalepsy appears” value in data set [2] is on record as “above 40 mg/kg”.

Regarding `CN1CCN(C2=Nc3ccccc3Oc3ncccc32)CC1.O=C(O)/C=C\C(=O)O` [Example 4, 5-(4-methylpiperazin-1-yl)pyrido(2,3-b)benzo-1,5-oxazepine maleate], in data set [2], the “dose at which catalepsy appears” value is recorded as no less than 20 mg/kg and the “cataleptic effect (in words)” value is given as “slight cataleptic effect”.

Take `CN1CCN(C2=Nc3cc(Cl)ccc3Oc3ncccc32)CC1.O=C(O)/C=C/C(=O)O` [Example 5, 8-chloro-5-(4-methylpiperazin-1-yl)pyrido(2,3-b)benzo-1,5-oxazepine fumarate]: the “Apomorphine antagonism” value in data set [3] (setting [5]) is given as “+”.

Take `CN1CCN(C2=Nc3cccnc3Oc3ccccc32)CC1.O=C(O)/C=C/C(=O)O` [Example 7, 6-(4-methylpiperazin-1-yl)pyrido(2,3-b)benzo-1,4-oxazepine fumarate]: the “Apomorphine antagonism” value in data set [3] (setting [5]) was “+”.

`CN1CCN(C2=Nc3cccnc3Nc3ccc(Cl)cc32)CC1` [Example 10, 8-chloro-6-(4-methylpiperazin-1-yl)-11H-pyrido(2,3-b)benzo-1,4-diazepine]: in data set [1] (setting [4]), the inhibition amounted to 31.5%. In the data set with muscarinergic receptors, the “Inhibition, % (binding of 3H QNB)” value was 62.08%.

For the compound `Cc1ccc2c(c1)C(N1CCN(C)CC1)=Nc1cccnc1N2` [Example 11, 6-(4-methylpiperazin-1-yl)-8-methyl-11H-pyrido(2,3-b)benzo-1,4-diazepine], the inhibition in data set [1] (setting [4]) came to 24.8%. Also, the “Inhibition, % (binding of 3H QNB)” value in the data set on muscarinergic receptors is recorded as 67.3%.

As for `CN1CCN(C2=Nc3cccnc3Nc3cc(Cl)ccc32)CC1` [Example 12, 9-chloro-6-(4-methylpiperazin-1-yl)-11H-pyrido(2,3-b)benzo-1,4-diazepine], the “Apomorphine antagonism” value in data set [3] (setting [5]) was “+”.

`CN1CCN(C2=Nc3cccnc3Nc3ccc(F)cc32)CC1` [Example 13, 8-fluoro-6-(4-methylpiperazin-1-yl)-11H-pyrido(2,3-b)benzo-1,4-diazepine]: in data set [3] (setting [5]), the “Apomorphine antagonism” value is listed as “+”.

`CN1CCN(C2=Nc3cccnc3N(C=O)c3ccccc32)CC1` [Example 17, 11-formyl-6-(4-methylpiperazin-1-yl)-11H-pyrido(2,3-b)benzo-1,4-diazepine]: the inhibition in data set [1] (setting [4]) turned out to be 22.8%. Also, in the data set with muscarinergic receptors, the “Inhibition, % (binding of 3H QNB)” value is listed as 43.38%.

Regarding `CN1CCN(C2=Nc3cnccc3Sc3ccccc32)CC1` [Example 18, 10-(4-methylpiperazin-1-yl)pyrido(4,3-b)benzo-1,4-thiazepine], the inhibition in data set [1] (setting [4]) amounted to 50.2%. In addition, the “Inhibition, % (binding of 3H QNB)” value in the data set with muscarinergic receptors is 57.61%.

Regarding `CN1CCN(C2=Nc3ccccc3[Se]c3ccccc32)CC1` [Example 19], in data set [1], the inhibition came out at 26.7%. The “Inhibition, % (binding of 3H QNB)” value with muscarinergic receptors is reported as 78.31%.

Turning to `O=C(CCCN1CCC(O)(c2ccc(Cl)cc2)CC1)c1ccc(F)cc1` [Haloperidol, reference compound], in data set [3] (scale from clozapine + to haloperidol (0.63 mg/kg) +++++), the “Apomorphine antagonism” value is reported as “+++++”.
